Measurements: PMC3265452 (PLoS Neglected Tropical Diseases, 2012)
Counter-ions that a name gives are not always drawn.

These compounds were tested against AaDOP2 (Aedes aegypti, UniProt H6D5H2) (assay: AaDOP2 antagonist screen of the LOPAC1280 library (HEK-CRELuc-Aadop2 cells, luminescence)). Settings: not given.
Type: cell-based

Chain of AaDOP2 (H6D5H2 1-476): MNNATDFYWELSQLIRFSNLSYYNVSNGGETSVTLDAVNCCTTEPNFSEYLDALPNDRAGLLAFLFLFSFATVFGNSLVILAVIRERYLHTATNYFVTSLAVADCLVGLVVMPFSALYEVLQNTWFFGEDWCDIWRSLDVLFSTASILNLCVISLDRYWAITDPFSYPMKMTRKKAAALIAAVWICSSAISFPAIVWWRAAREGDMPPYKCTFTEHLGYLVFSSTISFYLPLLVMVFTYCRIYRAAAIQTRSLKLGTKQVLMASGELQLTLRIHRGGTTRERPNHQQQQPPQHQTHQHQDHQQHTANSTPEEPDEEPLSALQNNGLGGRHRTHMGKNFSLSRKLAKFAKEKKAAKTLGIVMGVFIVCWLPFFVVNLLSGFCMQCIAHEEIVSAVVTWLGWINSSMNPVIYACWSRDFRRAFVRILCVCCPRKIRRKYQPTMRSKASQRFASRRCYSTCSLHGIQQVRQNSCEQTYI

Row | Compound | Compound effect (percent receptor signaling in presence of test compound, relative lux units relative to the SCH23390 control)
1 | COc1cc(C=C(C#N)C#N)cc(O)c1O [Compound 1189, Tyrphostin AG 34] | 74
2 | C[C@]12C=CC(=O)C=C1CC[C@H]1[C@@H]3C[C@@H](O)[C@](O)(C(=O)CO)[C@@]3(C)C[C@H](O)[C@@]12F [Compound 1190, Triamcinolone] | 108
3 | CC(COc1ccc(/C=C/c2ccccc2)cc1)[N+](C)(C)C.[I-] (stereo not drawn) [Compound 1192, N,N,N-trimethyl-1-(4-trans-stilbenoxy)-2-propylammonium iodide] | 79
4 | N#CC(C#N)=C(N)/C(C#N)=C/c1ccc(O)cc1 [Compound 1194, Tyrphostin AG 112] | 118
5 | N#CC(C#N)=Cc1ccc(O)c(O)c1 [Compound 1196, Tyrphostin 23] | 79
6 | Cc1ccc(S(=O)(=O)N[C@@H](CCCCN)C(=O)CCl)cc1.Cl [Compound 1198, Na-p-Tosyl-L-lysine chloromethyl ketone hydrochloride] | 100
7 | N#CC(C#N)=Cc1cc(O)c(O)c(O)c1 [Compound 1199, Tyrphostin 25] | 113
8 | FC(F)(F)c1ccccc1-n1ccnc1 [Compound 1200, 1-[2-(Trifluoromethyl)phenyl]imidazole] | 86
9 | CC(=O)O[C@H]1C(=O)[C@@]2(C)[C@H]([C@H](OC(=O)c3ccccc3)[C@]3(O)C[C@H](OC(=O)[C@H](O)[C@@H](NC(=O)c4ccccc4)c4ccccc4)C(C)=C1C3(C)C)[C@]1(OC(C)=O)CO[C@@H]1C[C@@H]2O [Compound 1201, Taxol] | 84
10 | CCCCNc1ccc(C(=O)OCCN(C)C)cc1 [Compound 1202, Tetracaine hydrochloride] | 78
11 | N#C/C(=C\c1ccc(O)c(O)c1)C(N)=S [Compound 1203, Tyrphostin 47] | 61
12 | N#CC(C#N)=C(N)/C(C#N)=C/c1cc(O)c(O)c(O)c1 [Compound 1204, Tyrphostin 51] | 122
13 | COc1cc(/C=C(\C#N)C(=O)c2ccc(O)c(O)c2)cc(I)c1O [Compound 1206, I-OMe-Tyrphostin AG 538] | 96
14 | N#C/C(=C\c1ccc(O)c(O)c1)C(=O)c1ccc(O)c(O)c1 [Compound 1207, Tyrphostin AG 538] | 75
15 | COc1cc(Cc2cnc(N)nc2N)cc(OC)c1OC [Compound 1208, Trimethoprim] | 92
16 | CNCC[C@@H](Oc1ccccc1C)c1ccccc1 [Compound 1209, Tomoxetine] | 79
17 | COC(=O)c1c(-c2cc(OC)c(OC)c(OC)c2)c2ccnc(OCc3ncccn3)c2c(=O)n1Cc1ccnc(C)c1 [Compound 1210, T-0156] | 56
18 | CN1[C@@H]2CC[C@H]1C[C@@H](OC(=O)c1cc(Cl)cc(Cl)c1)C2 [Compound 1211, 3-Tropanyl-3,5-dichlorobenzoate] | 97
19 | C/C=C(/C)C(=O)O[C@H]1C(C)=C2[C@H]([C@@H]1OC(=O)CCCCCCC)[C@@](C)(OC(C)=O)C[C@H](OC(=O)CCC)[C@@]1(O)[C@H]2OC(=O)[C@@]1(C)O [Compound 1215, Thapsigargin] | 103
20 | N#CC(C#N)=Cc1ccc([N+](=O)[O-])c(O)c1 [Compound 1216, Tyrphostin AG 126] | 100
21 | CC/C(=C(\c1ccccc1)c1ccc(OCCN(C)C)cc1)c1ccccc1 [Compound 1217, Tamoxifen citrate] | 87
22 | CC(C)(C)c1ccc(C(O)CCCN2CCC(C(O)(c3ccccc3)c3ccccc3)CC2)cc1 (stereo not drawn) [Compound 1218, Terfenadine] | 41
23 | Cl.O=c1[nH]oc2c1CCNC2 [Compound 1220, THIP hydrochloride] | 95

Row | Compound | Compound effect (percent receptor signaling in presence of test compound, relative lux units relative to the SCH23390 control)
24 | O=C(CCCN1CCC(O)(c2cccc(C(F)(F)F)c2)CC1)c1ccc(F)cc1 [Compound 1221, Trifluperidol hydrochloride] | 68
25 | CN1[C@@H]2CC[C@H]1CC(OC(=O)c1c[nH]c3ccccc13)C2.Cl (stereo partly drawn) [Compound 1222, 3-Tropanyl-indole-3-carboxylate hydrochloride] | 89
26 | CCCCNc1c(C(=O)OCC)c(C)nc2c1cnn2CC [Compound 1223, Tracazolate] | 113
27 | C[N+]1(C)C2CCC1CC(OC(=O)c1c[nH]c3ccccc13)C2.[I-] (stereo not drawn) [Compound 1224, 3-Tropanylindole-3-carboxylate methiodide] | 91
28 | Cc1scc2c1N(C(=O)CN1CCN(C)CC1)c1ccccc1NC2=O [Compound 1225, Telenzepine dihydrochloride] | 77
29 | S=C(NC1CCCCC1)N1CCC(c2cnc[nH]2)CC1 [Compound 1226, Thioperamide maleate] | 90
30 | CC(C)(C)c1cc(C=C(C#N)C#N)cc(C(C)(C)C)c1O [Compound 1230, Tyrphostin A9] | 25
31 | CP(=O)(O)C1=CCNCC1 [Compound 1231, TPMPA] | 112
32 | CCCCC/C=C\C[C@@H](O)/C=C/c1cccc(C[C@@H](O)CCCCO)n1 [Compound 1232, U-75302] | 107
33 | O=c1ccn([C@@H]2O[C@H](COP(=O)([O-])OP(=O)([O-])[O-])[C@@H](O)[C@H]2O)c(=O)[nH]1.[Na+].[Na+].[Na+] [Compound 1233, Uridine 5'-diphosphate sodium] | 78
34 | C[C@]12C=CC(=O)C=C1CC[C@@H]1C2=CC[C@]2(C)[C@@H](C(=O)CN3CCN(c4cc(N5CCCC5)nc(N5CCCC5)n4)CC3)CC[C@@H]12.O=C(O)/C=C\C(=O)O [Compound 1234, U-74389G maleate] | 88
35 | Cc1c(C)c2c(c(C)c1O)CCC(C)(CN1CCN(c3cc(N4CCCC4)nc(N4CCCC4)n3)CC1)O2.Cl.Cl (stereo not drawn) [Compound 1235, U-83836 dihydrochloride] | 103
36 | COc1ccc2c(c1)CC[C@@H]1[C@@H]2CC[C@]2(C)[C@@H](NCCCCCCN3C(=O)C=CC3=O)CC[C@@H]12 [Compound 1236, U-73122] | 80
37 | O=C(O)C=Cc1c[nH]cn1 [Compound 1238, 4-Imidazoleacrylic acid] | 74
38 | COc1ccccc1N1CCN(CCCNc2cc(=O)n(C)c(=O)n2C)CC1 [Compound 1239, Urapidil hydrochloride] | 94
39 | COc1ccccc1N1CCN(CCCNc2c(C)c(=O)n(C)c(=O)n2C)CC1 [Compound 1240, Urapidil, 5-Methyl-] | 91
40 | Brc1c(NC2=NCCN2)ccc2nccnc12 [Compound 1242, UK 14,304] | 87
41 | CCCN(CCC)[C@H]1CCc2c(F)ccc(O)c2C1.Cl [Compound 1244, S(-)-UH-301 hydrochloride] | 90
42 | CCCN(CCC)[C@@H]1CCc2c(F)ccc(O)c2C1.Cl [Compound 1245, R(+)-UH-301 hydrochloride] | 97
43 | CCCN(CCC)C1Cc2cc(OC)c(OC)cc2C1.O=C(O)/C=C\C(=O)O [Compound 1249, U-99194A maleate] | 97
44 | N#CC(=C(/N)Sc1ccccc1N)/C(C#N)=C(/N)Sc1ccccc1N [Compound 1250, U0126] | 108
45 | CC[C@]1(O)C[C@@H]2CN(CCc3c([nH]c4ccccc34)[C@@](C(=O)OC)(c3cc4c(cc3OC)N(C)[C@H]3[C@@](O)(C(=O)OC)[C@H](OC(C)=O)[C@]5(CC)C=CCN6CC[C@]43[C@@H]65)C2)C1.O=S(=O)(O)O [Compound 1251, Vinblastine sulfate salt] | 118

Same assay, conditions: 10 µM compound, 300 nM dopamine, 2 hr; hit = compound effect <20

Row | Compound | Compound effect (percent receptor signaling in presence of test compound, relative lux units relative to the SCH23390 control)
46 | Cc1ccc(/C(=C\CN2CCCC2)c2ccccn2)cc1.Cl [Compound 1193, Triprolidine hydrochloride] | 78%
47 | S=C([S-])OC1CC2CC1C1CCCC21.[K+] [Compound 1213, D-609 potassium] | 87%
48 | CCN(CC)C(=O)N[C@H]1C[C@@H]2c3cccc4[nH]cc(c34)C[C@H]2N(C)C1 [Compound 1228, R(+)-Terguride] | 73%
